Legend:
[1] = Detection of test substance in rat plasma by LC-MS/MS (Test Example 3); assay type: in vivo; conditions: 100 nmol/kg i.v.; for Maximum time of detection after administration: rat plasma, LC-MS/MS, time at which the test substance was finally detected
Procedure, shortened: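 Reported as final detection time: LC-MS/MS measured test substance in rat plasma collected from the jugular vein at 15, 30, 60, 90, 120, 180 and 240 min post-dose. Sample prep used a labelled hANP internal standard, acidic solvent, and sequential 50K then 3K ultrafiltration, keeping the 3K retentate.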

human GC-A = target: T1, human GC-A (Homo sapiens, UniProt P16066); assay: cGMP elevating activity in CHO/human GC-A cells (Test Example 1); assay type: cell-based
T1 construct: expressed in transfected cells; host or cells: CHO cells
T1 sequence (P16066 33-1061): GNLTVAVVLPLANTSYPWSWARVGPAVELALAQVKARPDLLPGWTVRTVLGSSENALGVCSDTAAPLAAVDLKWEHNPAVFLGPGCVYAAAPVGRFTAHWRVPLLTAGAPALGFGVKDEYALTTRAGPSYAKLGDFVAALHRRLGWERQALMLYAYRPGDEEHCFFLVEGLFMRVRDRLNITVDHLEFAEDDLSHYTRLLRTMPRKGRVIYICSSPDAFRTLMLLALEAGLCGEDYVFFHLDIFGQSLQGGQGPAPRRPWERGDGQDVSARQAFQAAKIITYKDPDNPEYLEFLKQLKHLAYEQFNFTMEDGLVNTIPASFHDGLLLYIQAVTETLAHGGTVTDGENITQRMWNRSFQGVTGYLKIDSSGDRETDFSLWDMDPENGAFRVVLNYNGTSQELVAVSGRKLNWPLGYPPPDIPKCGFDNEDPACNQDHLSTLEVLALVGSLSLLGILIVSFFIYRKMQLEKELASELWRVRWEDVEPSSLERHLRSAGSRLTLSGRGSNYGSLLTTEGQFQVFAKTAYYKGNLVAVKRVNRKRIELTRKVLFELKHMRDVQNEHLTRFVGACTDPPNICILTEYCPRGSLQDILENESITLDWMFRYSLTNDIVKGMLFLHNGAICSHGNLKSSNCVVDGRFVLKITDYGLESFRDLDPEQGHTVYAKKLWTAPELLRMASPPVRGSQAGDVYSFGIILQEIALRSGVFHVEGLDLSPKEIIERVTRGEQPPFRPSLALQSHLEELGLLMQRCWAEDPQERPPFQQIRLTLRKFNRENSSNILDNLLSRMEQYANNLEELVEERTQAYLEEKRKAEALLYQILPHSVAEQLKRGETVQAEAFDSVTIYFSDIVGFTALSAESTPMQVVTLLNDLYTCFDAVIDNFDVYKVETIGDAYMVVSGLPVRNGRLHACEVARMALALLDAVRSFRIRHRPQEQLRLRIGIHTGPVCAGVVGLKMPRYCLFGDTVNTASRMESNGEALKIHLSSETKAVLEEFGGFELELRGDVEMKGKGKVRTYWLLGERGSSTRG
Procedure, shortened: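 cGMP in lysates was read by HTRF after a 15 min peptide exposure of GC-A-expressing CHO cells in a CO2 incubator, following 10 min room-temperature preincubation with 1.6 mM IBMX in KRB. T/C values were normalised between solvent wells (0) and 1 nM ANP wells (1).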

cGMP level in blood = cGMP level in blood after subcutaneous administration to a monkey; assay type: in vivo
[2] = Detection in blood after subcutaneous administration to a monkey; assay type: in vivo
[3] = tested on: cGMP concentration in plasma; assay: cGMP concentration in plasma of rats after intravenous injection (Test Example 3); assay type: in vivo; conditions: rat, 100 nmol/kg i.v.
Experimental: The duration time (the effect of persistently elevating cGMP in blood and the time for which a test substance was detectable in blood) of each modified peptide prepared in Example 2 in the blood of rats was examined by the following method:
Before the administration and 15, 30, 60, 90, 120, 180, and 240 minutes after the administration, blood was sampled (200 μL/sampling) over time from the jugular vein. The blood samples were immediately left on ice.
The collected blood samples were centrifuged at 5000 rpm at 4° C. for 5 minutes by use of a centrifuge (Sigma 4K15, rotor: Nr12130-H). The separated plasma samples were divided into two types (samples for PK measurement and for cGMP measurement) and stored at −80° C. until measurement.
The cGMP concentration in plasma was measured using Amersham cGMP Enzyme Immunoassay Biotrak™ (EIA) System (dual range) according to the protocol attached thereto.

Compound	Maximum time of detection after administration [1] [h]	EC50 (human GC-A) [nM]	Elevation of the cGMP level in blood after administration (cGMP level in blood)	Detection in blood after administration [2]	Detection of test substance in plasma sample ([1]; rat, 15 minutes after the administration)	AUC60-240 ([3]; plasma cGMP) [pmol·h/mL]	All values integrated AUC 0-240 ([3]; plasma cGMP, 0 to 240 minutes, Pre-value as baseline, points under baseline negative)	All values integrated AUC 60-240 ([3]; plasma cGMP, 60 to 240 minutes, Pre-value as baseline, points under baseline negative)	Pre-value and higher values integrated AUC 60-240 ([3]; plasma cGMP, 60 to 240 minutes, only points above baseline)	Elevation of cGMP in plasma at 60 minutes or later [3]	cGMP level 30 minutes after the administration [3]
CC[C@H](C)[C@@H]1NC(=O)[C@H](CCCNC(=N)N)NC(=O)[C@H](CC(=O)O)NC(=O)[C@H](CCSC)NC(=O)[C@H](CCCNC(=N)N)NC(=O)CNC(=O)CNC(=O)[C@H](Cc2ccccc2)NC(=O)[C@@H](NC(=O)[C@H](CO)NC(=O)[C@H](CO)NC(=O)[C@H](CCCNC(=N)N)NC(=O)[C@H](CCCNC(=N)N)NC(=O)[C@H](CC(C)C)NC(=O)[C@H](CO)NC(=O)CCOCCOCCOCCOCCOCCOCCOCCOCCOCCOCCOCCOCCNC(=O)[C@H](CC(=O)N[C@@H]2O[C@H](CO)[C@@H](O[C@@H]3O[C@H](CO)[C@@H](O[C@@H]4O[C@H](CO[C@H]5O[C@H](CO)[C@@H](O)[C@H](O)[C@@H]5O[C@@H]5O[C@H](CO)[C@@H](O[C@@H]6O[C@H](CO[C@]7(C(=O)O)C[C@H](O)[C@@H](NC(C)=O)[C@H]([C@H](O)[C@H](O)CO)O7)[C@H](O)[C@H](O)[C@H]6O)[C@H](O)[C@H]5NC(C)=O)[C@@H](O)[C@H](O[C@H]5O[C@H](CO)[C@@H](O)[C@H](O)[C@@H]5O[C@@H]5O[C@H](CO)[C@@H](O[C@@H]6O[C@H](CO[C@]7(C(=O)O)C[C@H](O)[C@@H](NC(C)=O)[C@H]([C@H](O)[C@H](O)CO)O7)[C@H](O)[C@H](O)[C@H]6O)[C@H](O)[C@H]5NC(C)=O)[C@@H]4O)[C@H](O)[C@H]3NC(C)=O)[C@H](O)[C@H]2NC(C)=O)NC(=O)CO[C@@H]2O[C@H](CO)[C@@H](O[C@@H]3O[C@H](CO)[C@@H](O[C@@H]4O[C@H](CO[C@H]5O[C@H](CO)[C@@H](O)[C@H](O)[C@@H]5O[C@@H]5O[C@H](CO)[C@@H](O[C@@H]6O[C@H](CO[C@]7(C(=O)O)C[C@H](O)[C@@H](NC(C)=O)[C@H]([C@H](O)[C@H](O)CO)O7)[C@H](O)[C@H](O)[C@H]6O)[C@H](O)[C@H]5NC(C)=O)[C@@H](O)[C@H](O[C@H]5O[C@H](CO)[C@@H](O)[C@H](O)[C@@H]5O[C@@H]5O[C@H](CO)[C@@H](O[C@@H]6O[C@H](CO[C@]7(C(=O)O)C[C@H](O)[C@@H](NC(C)=O)[C@H]([C@H](O)[C@H](O)CO)O7)[C@H](O)[C@H](O)[C@H]6O)[C@H](O)[C@H]5NC(C)=O)[C@@H]4O)[C@H](O)[C@H]3NC(C)=O)[C@H](O)[C@H]2NC(C)=O)CSSC[C@@H](C(=O)N[C@@H](CC(N)=O)C(=O)N[C@@H](CO)C(=O)N[C@@H](Cc2ccccc2)C(=O)N[C@@H](CCCNC(=N)N)C(=O)N[C@@H](Cc2ccc(O)cc2)C(=O)O)NC(=O)CNC(=O)[C@H](CC(C)C)NC(=O)CNC(=O)[C@H](CO)NC(=O)[C@H](CCC(N)=O)NC(=O)[C@H](C)NC(=O)CNC1=O [Compound 2-27, SG-(SG-)Asn-PEG(11)-hANP(1-28)]	2	0.26	–	–	–	–	–	–	–	–	–
CC[C@H](C)[C@@H]1NC(=O)[C@H](CCCNC(=N)N)NC(=O)[C@H](CC(=O)O)NC(=O)[C@H](CCSC)NC(=O)[C@H](CCCNC(=N)N)NC(=O)CNC(=O)CNC(=O)[C@H](Cc2ccccc2)NC(=O)[C@@H](NC(=O)[C@H](CO)NC(=O)[C@H](CO)NC(=O)[C@H](CCCNC(=N)N)NC(=O)[C@H](CCCNC(=N)N)NC(=O)[C@H](CC(C)C)NC(=O)[C@@H](N)CO)CSSC[C@@H](C(=O)N[C@@H](CC(N)=O)C(=O)N[C@@H](CO)C(=O)N[C@@H](Cc2ccccc2)C(=O)N[C@@H](CCCNC(=N)N)C(=O)N[C@@H](Cc2ccc(O)cc2)C(=O)O)NC(=O)CNC(=O)[C@H](CC(C)C)NC(=O)CNC(=O)[C@H](CO)NC(=O)[C@H](CCC(N)=O)NC(=O)[C@H](C)NC(=O)CNC1=O [Native hANP, hANP(1-28)]	0	–	returns, 60 minutes after the administration, to the same level as that before the administration	no longer detected in blood 30 minutes after the administration	no longer detected	≤ 0	13.90 (pmol/ml)*h	−33.86 (pmol/ml)*h	0.00 (pmol/ml)*h	disappeared completely	a level close to that before the start of the administration

From patent US10947289B2, “Glyco-modified atrial natriuretic peptide” (priority 2013, dated 2021)
